Columns and labels:
[1] = test system: Pseudomonas aeruginosa (ATCC 15442); test: Biocidal activity against simulated biofilm systems (alginate beads); type: cell-based
Text: A biofilm simulation system, alginate beads, developed by the Biofilm Bozeman Institute Montana (Grobe, K. J, Zahller, J and Stewart P. S., 2002 in “Role of dose concentration in biocide efficacy against Pseudomonas aeruginosa Biofilms”, J. Industrial Microbiology & Biotechnology, vol. 29, pp 10-15), was used in order to evaluate the efficacy of bromine/urea against biofilm.
The biofilm simulation was created by entrapping bacteria in alginate gel beads. A plate of R2A agar was streaked with Pseudomonas aeruginosa (ATCC 15442) and incubated at 35° C. overnight. Buffer phosphate at pH 7.2 was used to scrap off the bacteria from the agar plate and to create a suspension. The bacterial suspension was mixed with an equal volume of an aqueous 4% sodium alginate solution, to make a final 2% alginate solution. The alginate and bacterial slurry were placed in a 50 ml syringe attached to a gauge needle (22), connected to a compressed air tank, allowing the syringe be pressurized. At 20 psig pressure a stream of small drops was forced out and dropped into a stirred solution of 50 mM CaCl2. The Ca^+2 cross linked the alginate, and semi solid beads with entrapped bacterial cells were formed. The beads were allowed to stir in the CaCl2 solution for about 20 minutes, and then rinsed in a dilute 5 mM CaCl2 solution. Several flasks containing 100 beads each were incubated overnight at 35° C. on a rotating shaker in a buffer solution (at pH 7) with 5 mM addition of CaCl2 to maintain the beads structure. The resulting beads diameter is about 2 mm
At the beginning of the experiment, the supernatant of the beads buffer suspension containing 5 mM CaCl2 was decanted and replaced by the 100 ml biocide solution with the required concentration. Chlorourea compositions prepared as in Example 1, and bromourera composition prepared as in Example 2, were used for the biocidal experiments. Urea-bromine compositions prepared by dissolving urea 15.02 g (250.3 mmol, 15% concentration) and 1.17 g Br2 (7.32 mmol, 1.17% concentration) in 84 g H2O (34.2:1 urea:Br2 molar ratio). After different interval contact times, 10 beads were removed and placed in a 5 g/l sodium thiosulfate solution containing 50 mM sodium citrate. The sodium citrate was used to dissolve the alginate gel and release the bacteria into the solution. The neutralizer-citrate solution was placed in the refrigerator for 2 hours, than diluted and placed on R2A agar plates using pour plate technique. The plates were incubated at 35° C. for 24-48 hours and counted. The efficacy and toxicity of the neutralizer were checked as well as a control experiment without biocide addition. Four concentrations (0.5, 1, 2.5 and 5 ppm) were tested at four different contact times (5, 15, 30, and 60 min). Table 1-2 describe the surviving colony forming units (CFU) of the bacteria after different biocides treatment at different contact times.

[2] = Stability of the prepared halourea solution; type: physicochemical; details: aqueous chlorourea solution, 1.27% as total Cl2
Description: In a 250 ml round bottom flask equipped with a magnetic stir bar, a dropping funnel and a thermocouple, 46.04 g urea (Mw 60, 767 mmol) was dissolved in 35.3 g H2O, followed by the addition (upon cooling, exothermic) of 5.37 g of 32% HCl (Mw 36.64, 46.9 mmol). To the solution was added upon cooling 13.3 g of an aq. 10.7% NaOCl solution (wt % as active Cl2, 20 mmol) during 14 min. A slightly yellow solution was obtained retaining 1.27% Cl2 (wt % as total Cl2, iodometric titration, in relation to 1.5% wt % theoretical as Cl2). […] The solution was stable for at least 1 week.
In a 250 ml round bottom flask equipped with a magnetic stir bar, a dropping funnel and a thermocouple, 46 g urea (Mw 60, 767 mmol) was dissolved in 31.8 g H2O, followed by the addition (upon cooling, exothermic) of 8.96 g of 48% HBr (Mw 80.92, 53.15 mmol). To the solution was added upon cooling 13.4 g of an aq. 10.7% NaOCl solution (wt %, as total Cl2, 20.2 mmol) during 10 min. An orange solution was obtained retaining 1% Cl2 (wt %, as total Cl2, iodometric titration, in relation to 1.43% theoretical). […] The solution was stable for at least 24 hrs.

[3] = biocide 0.5 ppm as Cl2, contact time 0 (min)
[4] = biocide 0.5 ppm as Cl2, contact time 5 min
[5] = biocide 0.5 ppm as Cl2, contact time 15 min
[6] = biocide 0.5 ppm as Cl2, contact time 30 min
[7] = biocide 0.5 ppm as Cl2, contact time 60 min
[8] = biocide 1 ppm as Cl2, contact time 0 (min)
[9] = biocide 1 ppm as Cl2, contact time 5 min
[10] = biocide 1 ppm as Cl2, contact time 15 min
[11] = biocide 1 ppm as Cl2, contact time 30 min
[12] = biocide 1 ppm as Cl2, contact time 60 min
[13] = biocide 2.5 ppm as Cl2, contact time 0 (min)
[14] = biocide 2.5 ppm as Cl2, contact time 5 min
[15] = biocide 2.5 ppm as Cl2, contact time 15 min
[16] = biocide 2.5 ppm as Cl2, contact time 30 min
[17] = biocide 2.5 ppm as Cl2, contact time 60 min
[18] = biocide 5 ppm as Cl2, contact time 0 (min)
[19] = biocide 5 ppm as Cl2, contact time 5 min
[20] = biocide 5 ppm as Cl2, contact time 15 min
[21] = biocide 5 ppm as Cl2, contact time 30 min
[22] = biocide 5 ppm as Cl2, contact time 60 min

SMILES	survival of bacteria (CFU) [1, 3]	survival of bacteria (CFU) [1, 4]	survival of bacteria (CFU) [1, 5]	survival of bacteria (CFU) [1, 6]	survival of bacteria (CFU) [1, 7]	survival of bacteria (CFU) [1, 8]	survival of bacteria (CFU) [1, 9]	survival of bacteria (CFU) [1, 10]	survival of bacteria (CFU) [1, 11]	survival of bacteria (CFU) [1, 12]	survival of bacteria (CFU) [1, 13]	survival of bacteria (CFU) [1, 14]	survival of bacteria (CFU) [1, 15]	survival of bacteria (CFU) [1, 16]	survival of bacteria (CFU) [1, 17]	survival of bacteria (CFU) [1, 18]	survival of bacteria (CFU) [1, 19]	survival of bacteria (CFU) [1, 20]	survival of bacteria (CFU) [1, 21]	survival of bacteria (CFU) [1, 22] [CFU]	other results
NC(=O)NBr [bromourea]	9.22 × 10^6 CFU	8.10 × 10^6 CFU	8.00 × 10^6 CFU	3.50 × 10^6 CFU	7.37 × 10^5 CFU	9.22 × 10^6 CFU	9.30 × 10^6 CFU	1.73 × 10^6 CFU	1.00 × 10^4 CFU	<1.00 CFU	9.22 × 10^6 CFU	2.72 × 10^6 CFU	6.08 × 10^2 CFU	5.00 × 10^1 CFU	<1.00 CFU	9.22 × 10^6 CFU	3.00 × 10^5 CFU	<1.00 CFU	<1.00 CFU	<1.00	
NC(=O)NCl [chlorourea]	2.28 × 10^7 CFU	2.80 × 10^7 CFU	2.43 × 10^7 CFU	2.28 × 10^7 CFU	1.00 × 10^7 CFU	2.28 × 10^7 CFU	1.89 × 10^7 CFU	1.61 × 10^7 CFU	1.66 × 10^7 CFU	6.40 × 10^5 CFU	2.28 × 10^7 CFU	2.20 × 10^7 CFU	1.42 × 10^7 CFU	3.56 × 10^5 CFU	1.58 × 10^3 CFU	2.28 × 10^7 CFU	2.16 × 10^7 CFU	1.00 × 10^6 CFU	3.25 × 10^3 CFU	<1.00	time for which the solution was stable [2]: at least 1 week

Source: patent US9133109B2, “Method for preparing bromourea” (Bromine Compounds Ltd., priority 2010, dated 2015)
